US20040175415A1, “Formulations and methods of delivery of intact tocopheryl succinate to humans” (priority 2003, published 2004)
Like-named read-outs stand apart in the source and are kept apart here.

What was measured:
[1] = room temperature raised to 40° C., man; cited from earlier work
[2] = DRI 2000, oral ingestion; cited from earlier work
[3] = tested on: human prostate cancer cells; settings: cited from earlier work
[4] = tested on: esterase in the digestive juice; settings: human (Howritt et al. 1984, Chessman et al. 1995); cited from earlier work
[5] = tested on: chemical-induced forestomach cancer; settings: cited from earlier work
murine melanoma = settings: ip, 15 injections at 3 mg/mouse, cited from earlier work
[6] = the Merck index; cited from earlier work
[7] = tested on: several lines of cancer cells in culture; settings: prior to the induction of apoptosis; cited from earlier work
colon cancer xenografts = settings: ip, 4 injections at 5 mg once every 3 days; cited from earlier work
[8] = tested on: colon cancer cell xenografts; settings: ip, 5 injections of 10 mg/day for 10 days; p < 0.01; cited from earlier work
[9] = tested on: human breast cancer cells; settings: cited from earlier work
[10] = safety of TS treatment in the human subjects; type: in vivo; settings: human subjects of this study
Protocol: The hydrolyzed products of TS are tocopherol (vitamin E) and succinic acid, an endogenous metabolite produced during the oxidation of carbohydrates, amino acids and fat. The upper safety limit for vitamin E is set at 1000 mg or 1 gm by the most recent issue of DRI (Dietary Reference Intake) for vitamin C, vitamin E selenium and carotenoids. The DRI report was published in 2000 and one of the joint inventors of the present invention served on the committee from which the report was sponsored by the Institute of Medicine, US National Academy of Sciences (Chan et al. 2000). The upper dose limit claimed in the invention herein, is below or around the upper safety limit set at 1 gm by the Institute of Medicine for oral ingestion.

[11] = intragastric 16 times at 1.25 g/kg
[12] = intragastric 16 times at 2.5 g/kg

Compound: O=C(O)c1ccccc1O [salicylate]
- increase in dermal crossing [1]: 3 fold

Compound: Cc1c(C)c2c(c(C)c1O)CC[C@@](C)(CCC[C@H](C)CCC[C@H](C)CCCC(C)C)O2 [vitamin E, RRR-alpha-tocopherol]
- upper safety limit [2]: 1000 mg

Compound: tocopheryl succinate [TS]
- expression of PSA (prostate specific antigen) [3]: strongly suppresses
- expression of the androgen receptors [3]: inhibits
- fate after oral ingestion [4]: convert to tocopherol
- reduction in tumor incident [5, 11]: 18%
- reduction in tumor volume [5, 11]: 63%
- reduction in tumor incident [5, 12]: 23%
- reduction in tumor volume [5, 12]: 81%
- less tumor incident ([5]; ip, 8 injections at 20 mg/kg): reduction in tumor volume & 50%
- reduction in tumor volume ([5]; ip, 8 injections at 20 mg/kg): ip treatments resulted in 84%
- proliferation (murine melanoma): Treatment resulted in reduction of
- tumor volume (murine melanoma; p < 0.01): Treatment resulted in reduction of
- solubility in vegetable oils [6]: not readily soluble
- cellular lysosomal disruption [7]: major disruption
- reduction in tumor volume (colon cancer xenografts): 75% reduction in tumor volume
- tumor volume [8]: tumor volume reduced
- angiogensis ([9]; ip injection): ip injection also reduce
- expression of VEGF (vascular endothelial growth factor) ([9]; ip injection): angiogensis via the suppressing
- reduction in tumor weight ([9]; ip, 7 injections at 3 mg/day): ip injection resulted in 63%
- effect on tumor with sc injections ([9]; sc, at 150 mg/kg per day): no effect with sc injections.
- safety of treatment procedure [10]: no concern regarding the safety
